{"source": "patent US5912266A", "about": "“Beta2 integrin cell adhesion molecule inhibitors” (American Home Products Corporation, priority 1997, dated 1999)", "system": "β2 integrin", "assay": "Adhesion of activated, β2 integrin-expressing HL60 cells to recombinant soluble ICAM-1", "type": "cell-based, human", "details": "for Percent Cells Bound: single well", "protocol": "HL60 cells were provided by the American Type Culture Collection (ATCC No. CCL240) and were used between passages 20 to 30 as the control β2 integrin expressing cells, following stimulation for exactly four days in culture media containing dimethylsulfoxide (DMSO). Culture media was comprised of RPMI 1640 (Gibco No. 3201870AJ) supplemented with Penicillin (100 Units/ml)/Streptomycin Sulfate ([…]) (Gibco No. 600-5145AE), L-Glutamine (2 mM) (Gibco No. 320-5030PG), and 10% heat inactivated fetal bovine serum (FBS, Hyclone No. A-1111L). Fetal bovine serum was heat inactivated by incubating in a 56° C. water bath for 30 minutes. Stimulation of the expression of the β2 integrin on HL60 cells was achieved by growing the cells at a density of 2.5×10^5 cells per ml of culture media for four days in the presence of 1.25% DMSO. Following the removal of the DMSO containing media, the β2 integrin on these cells was activated to a high affinity ICAM-1 binding state by the addition of 0.1 nM of (PMA) and PMN Buffer. This buffer was comprised of Hank's balanced salt solution (HBSS) supplemented with 1.2 mM calcium chloride, 1 mM magnesium chloride, 2% glucose, […] HEPES buffer. The ICAM-1 used to measure the adhesion of β2 integrin-bearing cells was obtained from cloning and expression of recombinant, soluble, human ICAM-1 using a baculovirus expression system and standard molecular biology technology. Soluble ICAM-1 was cloned by cleaving ICAM-1 DNA, purchased from R & D Systems, with restriction enzymes to obtain DNA that codes for the soluble (non-membrane) form of the protein. […] The soluble ICAM-1 was purified by passing the media from the ICAM-1 expressing cells over an anti-ICAM-1 antibody-linked sepharose column prepared using a standard immunoaffinity chromatography kit obtained from Pierce Inc.\n200 ng of purified, recombinant, soluble ICAM-1 contained in 100 μl of PBS was added to wells of a flat bottom, 96 well EIA/RIA plate (Corning No. 25801), covered with an adhesive backed plate sealer (Linbro No. 76-401-05) and incubated for at least 18 hours at 4° C. to allow ICAM-1 to bind to the assay wells, prior to the addition of the β2 integrin expressing HL60 cells.\nHL60 cells were grown in 1.25% DMSO for 4 days and pelleted by centrifugation in a Sorvall RT6000 tabletop centrifuge for 5 minutes, 1000 rotations per minute (rpm), at room temperature. The resulting HL60 cell pellet was resuspended in 50 ml sterile Dulbecco's phosphate buffered saline (dPBS) (Gibco No. 310-4040AJ). The resulting cell pellet was resuspended in 50 ml dPBS and the cell concentration was determined using a hemacytometer. The cells were pelleted as described above and resuspended in PMN Buffer to 15 to 20×10^6 cells/ml. The resuspended HL60 cells were fluorescently labeled by mixing the cells with an equal volume of a 25 μM solution of Calcein AM (Molecular Probes No. C-1430) dye that had been dissolved in PMN Buffer. HL60 cells in the calcein AM solution was incubated in a 37° C. waterbath for 10 minutes with intermittent swirling of the reaction tube. The labeling reaction was stopped by the addition of 13 ml of ice-cold PMN Buffer and the cells were pelleted by centrifugation at 2000 rpm for 5 minutes at 4° C.\nThe labeled cell pellet was resuspended in 15 ml of ice-cold PMN Buffer and the cell density was determined using a hemacytometer. Cells were then pelleted by centrifugation at 2000 rpm for 5 minutes followed by resuspension in ice-cold PMN Buffer to 2×10^5 cells/40 μl. The labeled cell suspension was placed in the dark at room temperature while asperlin containing solutions were prepared.\nAsperlin was solubilized in 100% DMSO at a concentration of 50 mg/ml. This stock was then diluted to 400 μg/ml with PMN Buffer and serial dilutions of the 400 μg/ml asperlin solution were prepared using PMN buffer containing 2% DMSO to obtain solutions ranging from 200 μg/ml to 1.56 μg/ml. […]", "note": "“And” between values parts separate entries of the source, which are not always exact repeats. Equal values may be shown once.", "data": [{"smiles": "CC(=O)OC1C=CC(=O)OC1C1OC1C", "note": "[Asperlin, 6,7-Anhydro-2,3,8-trideoxy-D-galacto-oct-2-enoic acidδ-lactone 4-acetate]", "values": [{"measurement": "% Inhibition of Cell Adhesion", "setting": "Asperlin 1.56 μg/ml", "result": -8, "unit": "%"}, {"measurement": "Average Percent Cells Bound", "setting": "Asperlin 1.56 μg/ml", "result": 26, "unit": "%"}, {"measurement": "Bound Cell Fluorescence", "setting": "Asperlin 1.56 μg/ml", "result": "1551 fluorescence units/well and 1755 fluorescence units/well"}, {"measurement": "Percent Cells Bound", "setting": "Asperlin 1.56 μg/ml", "result": "25% and 27%"}, {"measurement": "% Inhibition of Cell Adhesion", "setting": "Asperlin 3.125 μg/ml", "result": -36, "unit": "%"}, {"measurement": "Average Percent Cells Bound", "setting": "Asperlin 3.125 μg/ml", "result": 33, "unit": "%"}, {"measurement": "Bound Cell Fluorescence", "setting": "Asperlin 3.125 μg/ml", "result": "1862 fluorescence units/well and 2077 fluorescence units/well"}, {"measurement": "Percent Cells Bound", "setting": "Asperlin 3.125 μg/ml", "result": "32% and 34%"}, {"measurement": "% Inhibition of Cell Adhesion", "setting": "Asperlin 6.25 μg/ml", "result": 29, "unit": "%"}, {"measurement": "Average Percent Cells Bound", "setting": "Asperlin 6.25 μg/ml", "result": 17, "unit": "%"}, {"measurement": "Bound Cell Fluorescence", "setting": "Asperlin 6.25 μg/ml", "result": "1003 fluorescence units/well and 1161 fluorescence units/well"}, {"measurement": "Percent Cells Bound", "setting": "Asperlin 6.25 μg/ml", "result": "15% and 19%"}, {"measurement": "% Inhibition of Cell Adhesion", "setting": "Asperlin 12.5 μg/ml", "result": 50, "unit": "%"}, {"measurement": "Average Percent Cells Bound", "setting": "Asperlin 12.5 μg/ml", "result": 12, "unit": "%"}, {"measurement": "Bound Cell Fluorescence", "setting": "Asperlin 12.5 μg/ml", "result": "589 fluorescence units/well and 768 fluorescence units/well"}, {"measurement": "Percent Cells Bound", "setting": "Asperlin 12.5 μg/ml", "result": "10% and 13%"}, {"measurement": "% Inhibition of Cell Adhesion", "setting": "Asperlin 25 μg/ml", "result": 83, "unit": "%"}, {"measurement": "Average Percent Cells Bound", "setting": "Asperlin 25 μg/ml", "result": 4, "unit": "%"}, {"measurement": "Bound Cell Fluorescence", "setting": "Asperlin 25 μg/ml", "result": "171 fluorescence units/well and 320 fluorescence units/well"}, {"measurement": "Percent Cells Bound", "setting": "Asperlin 25 μg/ml", "result": "2.6% and 5.3%"}, {"measurement": "% Inhibition of Cell Adhesion", "setting": "Asperlin 50 μg/ml", "result": 94, "unit": "%"}, {"measurement": "Average Percent Cells Bound", "setting": "Asperlin 50 μg/ml", "result": 1.4, "unit": "%"}, {"measurement": "Bound Cell Fluorescence", "setting": "Asperlin 50 μg/ml", "result": "82 fluorescence units/well and 77 fluorescence units/well"}, {"measurement": "Percent Cells Bound", "setting": "Asperlin 50 μg/ml", "result": "1.4% and 1.3%"}, {"measurement": "% Inhibition of Cell Adhesion", "setting": "Asperlin 100 μg/ml", "result": 97.5, "unit": "%"}, {"measurement": "Average Percent Cells Bound", "setting": "Asperlin 100 μg/ml", "result": 0.6, "unit": "%"}, {"measurement": "Bound Cell Fluorescence", "setting": "Asperlin 100 μg/ml", "result": "45 fluorescence units/well and 31 fluorescence units/well"}, {"measurement": "Percent Cells Bound", "setting": "Asperlin 100 μg/ml", "result": "0.7% and 0.5%"}, {"measurement": "% Inhibition of Cell Adhesion", "setting": "Asperlin 200 μg/ml", "result": 98, "unit": "%"}, {"measurement": "Average Percent Cells Bound", "setting": "Asperlin 200 μg/ml", "result": 0.5, "unit": "%"}, {"measurement": "Bound Cell Fluorescence", "setting": "Asperlin 200 μg/ml", "result": "29 fluorescence units/well and 28 fluorescence units/well"}, {"measurement": "Percent Cells Bound", "setting": "Asperlin 200 μg/ml", "result": 0.5, "unit": "%"}, {"measurement": "Effect on adhesion of activated β2 integrin expressing cells to ICAM-1 (in words)", "setting": "summary of Table I", "result": "blocks the adhesion of activated β2 integrin expressing cells to ICAM-1"}]}]}
